This is an account of results in patent publication EP4541891A1, “NOVEL LRP1-BINDING PEPTIDE” (Ichimaru Pharcos Co., Ltd., priority 2022, dated 2025).

Bridge positions count the residues as written; N and C are the ends. Square brackets hold non-standard residues; d marks the D form. Ends that are not written are not given here. Peptide text beside a SMILES is read from it. * marks the point of attachment. 5FAM = O=C1OC2(c3ccc(O)cc3Oc3cc(O)ccc32)c2ccc(C(=O)*)cc21; Biotin = O=C1N[C@H]2[C@H](CS[C@H]2CCCCC(=O)*)N1; Nle = CCCC[C@H](N)C(=O)O

Data set [1] concerns LRP1 cluster 4-Fc chimeric proteins. Description: Competitive binding assay by ELISA against Sequence 46. On the procedure: (§1) For comparison between the peptide of Sequence 1 with amino acid substitutions and the peptide of Sequence 2 in terms of the LRP1 binding activity and the resistance to protease degradation, a competitive binding assay by ELISA shown in FIG. 2 was constructed. Immediately (zero hour) or 24 hours after the mixing of the peptide of Sequence 2 or the amino acid-substituted peptide with mouse plasma at 37°C, the mixture was diluted to sufficiently lower the plasma concentration to any desired final concentration, and mixed with Sequence 46 (500 nM). This mixture was subjected to the competitive binding assay described above. The binding of Sequence 46 to the LRP1 cluster 4-Fc chimera proteins competes with the binding of Sequence 2 or the amino acid-substituted peptide to the LRP1 cluster 4-Fc chimera proteins, and thus is inhibited depending on the concentration of Sequence 2 or the amino acid-substituted peptide. That is, the binding activity of Sequence 2 or the amino acid-substituted peptide to the LRP1 cluster 4-Fc chimera proteins is detected as competitive inhibitory activity against the binding of Sequence 46. Regarding the binding value of Sequence 46 to the wells in which the LRP1 cluster 4-Fc chimeric proteins were not captured as 100% inhibitory activity and the binding value of Sequence 46 to the wells in which Sequence 2 or the amino acid-substituted peptide was not added as 0% inhibitory activity, the inhibitory activity values of Sequence 2 and the amino acid-substituted peptide were calculated in %.
Sequence 2 incubated with plasma for zero hour inhibited the binding of Sequence 46 in a concentration-dependent manner. […] However, the binding of Sequence 46 (500 nM) in wells loaded with 2,000 nM equivalent Sequence 2 averaged 50.6%.
Immediately or 24 hours after Sequences 1 to 44 were mixed with mouse plasma at 37°C, the mixtures were diluted to sufficiently lower the plasma concentration to a final concentration of 2,000 nM, and mixed with Sequence 46 (500 nM). The obtained mixtures were subjected to the above-described competitive binding assay. […] Other sequences tended to have diminished inhibitory activities.
(In general: An ELISA detects its analyte on a solid surface through an enzyme-linked reagent.)

Data set [2] is described as follows: Resistance to protease degradation in mouse plasma, read out by competitive binding ELISA. It counts as in vitro ADME. To be noted: 37°C, inferred from loss of inhibitory activity. On the procedure: as §1, with “The binding of Sequence 46 to the LRP1 cluster 4-Fc chimera proteins competes with the binding of Sequence 2 or the amino acid-substituted peptide to the LRP1 cluster 4-Fc chimera proteins, and thus is inhibited depending on the concentration of Sequence 2 or the amino acid-substituted peptide.” left out, “%. […]” for “%.”

Data set [3] has as its system LRP1 cluster 2-Fc chimeric proteins. Briefly: ELISA binding test of biotin-labeled peptides. To be noted: biotinylated peptide 1,000 nM to 1.4 nM. On the procedure: (§2) To evaluate the binding activity of the peptides to LRP1, an ELISA-based binding assay was constructed. The ELISA method will be briefly described below. First, a goat antihuman IgG-Fcγ polyclonal antibody (Catalog No. 109-0005-008, manufactured by Jackson Immuno Research) was added to a 96-well Maxisorp plate (Catalog No. 439454, manufactured by Nunc) at 1 µg/50 µL/well using D-PBS, followed by coating overnight at 4°C. Then, 0.5% BSA/D-PBS was further added at 300 µL/well, and blocking was carried out at room temperature for 30 minutes. After washing the plate with 0.1% Tween 20/D-PBS, LRP1 recombinant proteins, namely, LRP1 cluster 2-Fc chimeric proteins (Catalog No. 2368-L2-050, manufactured by R & D Systems), LRP1 cluster 3-Fc chimeric proteins (Catalog No. 48248-L3-050, manufactured by R & D Systems), or LRP1 cluster 4-Fc chimeric proteins (Catalog No. 5395-L4-050, manufactured by R & D Systems), were added at 100 ng/50 µL/well using 0.5% BSA/D-PBS, and allowed to react with the coated antibodies at room temperature for 30 minutes. After washing the plate with 0.1% Tween 20/PBS, Sequences 45 and 46, which were biotinylated peptides, were prepared at an arbitrary concentration using 0.5% BSA/D-PBS, and added at 50µL/well. After causing a reaction at room temperature for 30 minutes, the plate was washed with 0.1% Tween 20/D-PBS. Sequences 45 and 46 bound to the LRP1 recombinant proteins captured on the plate were detected with SA-HRP (Catalog No. ab7403, manufactured by Abeam). For quantification of HRP, TMB ELISA Substrate Solution (Catalog No. 34028, manufactured by Thermo Fisher) was used to measure absorbance at 450 nm.

In data set [4] the test system is LRP1 cluster 3-Fc chimeric proteins. Description: ELISA binding test of biotin-labeled peptides. Particulars: biotinylated peptide 1,000 nM to 1.4 nM. On the procedure:
as §2

Data set [5] concerns LRP1 cluster 4-Fc chimeric proteins. Briefly: ELISA binding test of biotin-labeled peptides. On the procedure: as §2
Data set [6] concerns the target LRP1 cluster 4-Fc chimeric proteins (UniProt Q07954). Briefly: competitive ELISA, LRP1 cluster 4-Fc captured; peptide 2,000 nM against biotin-Sequence 46 500 nM.
Sequence of UniProt Q07954 (Q07954 3293-3783, stated change not applied): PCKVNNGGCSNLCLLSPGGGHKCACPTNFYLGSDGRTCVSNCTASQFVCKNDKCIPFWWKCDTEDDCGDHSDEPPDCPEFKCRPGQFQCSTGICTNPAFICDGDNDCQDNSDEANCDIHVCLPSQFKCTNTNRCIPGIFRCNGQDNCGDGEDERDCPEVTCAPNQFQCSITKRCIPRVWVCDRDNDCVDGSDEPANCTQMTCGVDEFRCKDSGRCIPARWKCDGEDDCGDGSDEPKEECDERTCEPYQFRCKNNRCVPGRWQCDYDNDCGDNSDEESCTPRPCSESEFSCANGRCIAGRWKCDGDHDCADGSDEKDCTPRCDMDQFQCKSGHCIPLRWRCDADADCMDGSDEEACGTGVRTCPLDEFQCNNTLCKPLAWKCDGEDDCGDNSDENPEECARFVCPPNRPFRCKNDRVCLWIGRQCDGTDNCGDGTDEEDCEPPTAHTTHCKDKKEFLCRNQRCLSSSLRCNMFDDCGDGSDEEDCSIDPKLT
The target is the same in data set [7]. Briefly: competitive ELISA, LRP1 cluster 4-Fc captured; Sequence 2 at 500 nM (zero hour in mouse plasma) against biotin-Sequence 46 500 nM.
Data set [8] shares this target. Description: competitive ELISA, LRP1 cluster 4-Fc captured; Sequence 2 at 2,000 nM equivalent after 24 h in mouse plasma at 37 C (about 75% degraded) against biotin-Sequence 46 500 nM.

As for `CCCC[C@@H]1NC(=O)[C@H](CCC(=O)O)NC(=O)[C@H](C)NC(=O)[C@H](CC(C)C)NC(=O)[C@H](CCCC)NC(=O)[C@H](Cc2ccc(O)cc2)NC(=O)[C@H](CCCCN)NC(=O)[C@H](Cc2ccc(O)cc2)NC(=O)[C@H]([C@@H](C)O)NC(=O)[C@@H](NC(=O)[C@@H]2CCCN2C(=O)[C@@H](NC(=O)CNC(=O)[C@H](CCCCNC(=O)c2ccc3c(c2)C(=O)OC32c3ccc(O)cc3Oc3cc(O)ccc32)NC(C)=O)[C@@H](C)O)CSSC[C@@H](C(=O)O)NC1=O` [Sequence 2, Ac-Lys(5FAM)-Gly-Thr-Pro-c(Cys-Thr-Tyr-Lys-Tyr-Nle-Leu-Ala-Glu-Nle-Cys)-OH] (Ac-K(5FAM)GTPCTYKY[Nle]LAE[Nle]C-OH; disulfide 5-15), the inhibitory activity in data set [1] (peptide 2,000 nM versus Sequence 46 (500 nM), time point not stated) was 79.4%. In addition, the “binding of Sequence 46 (500nM)” value in data set [1] (wells loaded with 2,000 nM equivalent Sequence 2, incubated with mouse plasma for 24 hours at 37°C, average) is recorded as 50.6%; in data set [1] (wells with 500 nM Sequence 2, incubated with mouse plasma for zero hour, n = 4, average) it was 52.4%. For the same molecule, in data set [2], the “degraded during the 24-hour incubation with the mouse plasma” value is given as “approximately 75%”.
By EC50 is commonly meant the concentration that produces a half-maximal response. `CCCC[C@@H]1NC(=O)[C@H](CCC(=O)O)NC(=O)[C@H](C)NC(=O)[C@H](CC(C)C)NC(=O)[C@H](CCCC)NC(=O)[C@H](Cc2ccc(O)cc2)NC(=O)[C@H](CCCCN)NC(=O)[C@H](Cc2ccc(O)cc2)NC(=O)[C@H]([C@@H](C)O)NC(=O)[C@@H](NC(=O)[C@@H]2CCCN2C(=O)[C@@H](NC(=O)CNC(=O)[C@H](CCCCNC(=O)CCCC[C@@H]2SC[C@@H]3NC(=O)N[C@@H]32)NC(C)=O)[C@@H](C)O)CSSC[C@@H](C(=O)O)NC1=O` [Sequence 46, Ac-Lys(Biotin)-Gly-Thr-Pro-c(Cys-Thr-Tyr-Lys-Tyr-Nle-Leu-Ala-Glu-Nle-Cys)-OH] (Ac-K(Biotin)GTPCTYKY[Nle]LAE[Nle]C-OH; disulfide 5-15): in data set [3], the “binding to the LRP1 cluster 2-Fc chimeric proteins” value is “little or no binding”. Besides, the “binding to the LRP1 cluster 3-Fc chimeric proteins” value in data set [4] is reported as “little or no binding”. Moreover, in data set [5] (biotinylated peptide 1,000 nM to 1.4 nM), the “binding to the LRP1 cluster 4-Fc chimeric proteins” value was “selectively and in a peptide concentration-dependent manner”. For the same molecule, a half-maximal effect in data set [5] (biotinylated peptide, SA-HRP detection, absorbance at 450 nm, n = 4) (EC50) was put at 11 nM.

B1: SEQUENCE 2 (peptide)
peptide: Ac-K(5FAM)GTPCTYKY[Nle]LAE[Nle]C
modifications: disulfide 5-15
As to B1, the inhibitory activity (%) in data set [6] was 79.4%. The binding of Sequence 46 (%) in the presence of the peptide in data set [7] was determined as 52.4%; in data set [8] it was 50.6%.
